Data reported in PMC10761933, “Acquired and intrinsic resistance to vemurafenib in BRAF^V600E ‐driven melanoma brain metastases” (FEBS Open Bio, 2023).
Like-named read-outs stand apart in the source and are kept apart here.

Assays:
[1] = Oral vemurafenib plasma pharmacokinetics in tumor‐free WT and Abcb1a/b;Abcg2−/− FVB nude mice; assay type: in vivo; details: mean ± SD; for Cmax / Tmax / half-life: FVB nude, mouse, plasma, po; for half-life: read-out: t 1/2 (elimination half‐life) (converted)
Protocol: To establish vemurafenib plasma kinetics, tumor‐free FVB WT, and Abcb1a/b;Abcg2 ^ −/− nude mice received vemurafenib orally (p.o.) by gavage at indicated doses. Elacridar (100 mg·kg^−1) was administrated p.o. by gavage 4 h before vemurafenib. Blood was sampled from the tail vein at 15 min, 1, 2, 4, 8, and 24 h after the administration. The plasma was obtained by centrifugation (5 min, 2000 g, 4 °C). Vemurafenib was extracted from plasma by diethyl ether liquid–liquid extraction. Extracts were dried using a Savant SpeedVac Concentrator (Thermo Fisher Scientific, Waltham, MA, USA), reconstituted in MeCN : water (30 : 70), and subjected to liquid chromatography/tandem mass spectrometry (LC/MS–MS) analysis. Vemurafenib‐^13C6 was used as an internal standard.
(§1) The LC–MS/MS system consisted of an API 3000 mass spectrometer (Sciex, Framingham, MA, USA) coupled to an UltiMate 3000 LC System (Dionex, Sunnyvale, CA, USA). Samples were separated using a ZORBAX Extend‐C18 column (Agilent, Santa Clara, CA, USA), preceded by a Securityguard C18 precolumn (Phenomenex, Utrecht, the Netherlands). Elution was done using a mixture of mobile phase A (0.1% formic acid in water (v/v)) and mobile phase B (methanol) in a 5 min gradient from 20% to 95% B, followed by 95% B that was maintained for 3 min and then re‐equilibrated at 20% B. Multiple reaction monitoring parameters were 490.2/383.1 (vemurafenib) and 496.2/389.1 (vemurafenib‐^13C6). System control and data analysis were done using ANALYST ® 1.6.2 software (AB Sciex, Foster City, CA, USA).
Pharmacokinetic parameters were calculated with PKSOLVER [30]. All comparisons involving more than two groups were analyzed by one‐way ANOVA followed by Bonferroni post hoc tests. Differences in fractions of ABC transporter‐expressing cells between brain and skin lesions were compared using the Binomial test in which the skin fraction was considered as expected and the brain fraction was considered as observed. Correlations were determined using simple linear regression. Kaplan–Meier curves were drawn using GRAPHPAD PRISM v7 (GraphPad Software, La Jolla, CA, USA), and statistically significant survival differences were determined using the log‐rank test. Statistical significance was accepted in all tests when P < 0.05.

[2] = Body weight during efficacy studies; assay type: in vivo, mice
Protocol: For the subcutaneous tumor model, therapy was initiated 2 weeks after implantation, when the tumor volume exceeded 40 mm^3. FVB WT and Abcb1a/b;Abcg2 ^ −/− nude mice (n = 8) received 25 and 10 mg·kg^−1 of vemurafenib daily, respectively. Control mice (n = 8) received vehicle. Tumor development was assessed by caliper twice a week. For the intracranial tumor model, treatment was started about 2 weeks after intracranial injection of tumor cells, when full‐blown tumors were present in all animals. WT and Abcb1a/b;Abcg2 ^ −/− nude mice received vehicle, 25 mg·kg^−1 vemurafenib, 10 mg·kg^−1 vemurafenib plus 100 mg·kg^−1 elacridar, or 10 mg·kg^−1 vemurafenib once daily for 10 consecutive days or in a 5 days on/2 days off/5 days on schedule, as indicated in the relevant figure panels. Tumor growth was monitored by BLI every 4 or 5 days. Mice were weighed daily weighed examined for abnormalities. The mice were humanely sacrificed based on BLI results or when weight loss exceeded 20% of the initial body weight.

[3] = Vemurafenib distribution in plasma, brain regions and tumor of A375 tumor‐bearing mice (LC–MS/MS); assay type: in vivo; details: for discrepancy in plasma concentration vs the previous pharmacokinetic experiment: 4 h after third daily administration
Protocol: To study its distribution in tumor‐bearing mice, vemurafenib was administered p.o. to tumor‐bearing mice for 3 days at a dose of 10 or 25 mg·kg^−1 q.d., starting 14 days after intracranial tumor cell injection. One group of mice received 10 mg·kg^−1 vemurafenib 4 h after administration of 100 mg·kg^−1 elacridar. Four hours after the third administration, blood was collected by heart puncture, and whole brains were dissected and divided into four parts: ipsilateral hemisphere (tissue from the tumor‐bearing hemisphere that was free of macroscopic tumor tissue), contralateral hemisphere (the tumor‐free hemisphere), cerebellum and macroscopic tumor. In a follow‐up experiment, tissues and plasma were collected 4 h after 5 and 10 consecutive daily p.o. administrations of vemurafenib. All tissues were weighed and subsequently homogenized using a FastPrep®‐24 (MP‐Bio‐medicals, Irvine, CA, USA) in 3 mL 1% (w/v) bovine serum albumin. All tissue samples were prepared for LC–MS/MS analysis as described above for plasma samples.
as §1

[4] = oral, WT mice; cited from earlier work
[5] = set-up: method as in PMID 25933211; details: clinical study; cited from earlier work
[6] = tested on: melanoma brain metastases; details: MBM patients; cited from earlier work
[7] = Abcb1a/b;Abcg2−/− mice, 10 mg·kg^−1 p.o.
[8] = Abcb1a/b;Abcg2−/− mice, 25 mg·kg^−1 p.o.
[9] = 10 mg/kg, Abcb1a/b;Abcg2−/− mice, 10 mg·kg^−1 p.o.
[10] = 10 mg/kg, WT mice, 10 mg·kg^−1 p.o. + elacridar 100 mg·kg^−1 p.o. 4 h before
[11] = 25 mg/kg, Abcb1a/b;Abcg2−/− mice, 25 mg·kg^−1 p.o.
[12] = 25 mg/kg, WT mice, 25 mg·kg^−1 p.o.
[13] = WT mice, 10 mg·kg^−1 p.o. + elacridar 100 mg·kg^−1 p.o. 4 h before

## CCCS(=O)(=O)Nc1ccc(F)c(C(=O)c2c[nH]c3ncc(-c4ccc(Cl)cc4)cc23)c1F [vemurafenib]
[1]; [7]
  AUCplasma 0–4 h: 56 ± 7.2 µg·mL/h
  AUCplasma 0–24 h: 230 ± 35 µg·mL/h
  AUCplasma 0–∞: 250 ± 49 µg·mL/h
  CL/F (apparent clearance after oral administration): 0.04 ± 0.006 L·kg/h
[1]; [8]
  AUCplasma 0–4 h: 140 ± 16 µg·mL/h
  AUCplasma 0–24 h: 530 ± 68 µg·mL/h
  AUCplasma 0–∞: 610 ± 84 µg·mL/h
  CL/F (apparent clearance after oral administration): 0.04 ± 0.006 L·kg/h
[1]; [9]
  Cmax: 17000 ± 1700 ng/mL
  Tmax: 2.8 ± 1.1 h
  half-life: 6.7 ± 1.4 h
[1]; [10]
  Tmax: 3.6 ± 0.9 h
  half-life: 5.8 ± 0.6 h
  Cmax: 12000 ± 1700 ng/mL
[1]; [11]
  Cmax: 41000 ± 4500 ng/mL
  Tmax: 1.9 ± 0.9 h
  half-life: 8.5 ± 1.2 h
[1]; [12]
  Cmax: 42000 ± 7700 ng/mL
  Tmax: 2.6 ± 1.3 h
  half-life: 2.1 ± 0.2 h
[1]; [13]
  AUCplasma 0–4 h: 38 ± 5.7 µg·mL/h
  AUCplasma 0–24 h: 180 ± 24 µg·mL/h
  AUCplasma 0–∞: 190 ± 23 µg·mL/h
  CL/F (apparent clearance after oral administration): 0.05 ± 0.006 L·kg/h
[1]; WT mice, 25 mg·kg^−1 p.o.
  AUCplasma 0–4 h: 147 ± 28 µg·mL/h
  AUCplasma 0–24 h: 390 ± 98 µg·mL/h
  AUCplasma 0–∞: 390 ± 99 µg·mL/h
  CL/F (apparent clearance after oral administration): 0.07 ± 0.017 L·kg/h
[2]; Abcb1a/b;Abcg2−/− mice with intracranial A375, two cycles of 5 days of 25 mg·kg^−1 daily oral
  body weight: without affecting body weight
[2]; intracranial A375, any treatment regimen (WT 25, WT 10 + elacridar, Abcb1a/b;Abcg2−/− 10 mg·kg^−1)
  body weight: could not observe any weight loss
[2]; subcutaneous A375, 25 mg·kg^−1 in WT and 10 mg·kg^−1 in Abcb1a/b;Abcg2−/− mice, 13 days
  body weight: did not result in body weight loss
[3]; 4 h after third daily oral administration
  levels in tumor core of WT mice relative to Abcb1a/b;Abcg2−/− mice: approximately half
[3]; Abcb1a/b;Abcg2−/− mice and WT mice also receiving elacridar
  concentration in tumor regions, 10 days vs 5 days of treatment: even higher at the later time point
[3]; FVB nude, mouse, oral, 25 mg·kg^−1, WT mice, stated as very close to the total blood volume of the murine brain, read-out: tissue–plasma ratios in normal brain regions
  Kp at 4 h: ~0.02
[3]; WT mice, 4 h after third daily oral administration
  penetration in normal brain regions: negligible
[3]; tumor‐bearing Abcb1a/b;Abcg2−/− mice
  discrepancy in plasma concentration vs the previous pharmacokinetic experiment: twofold
[3]; tumor‐bearing WT mice that also received elacridar
  discrepancy in plasma concentration vs the previous pharmacokinetic experiment: no difference
[3]; tumor‐bearing WT mice, 25 mg·kg^−1
  plasma concentration, long‐term (10 days) vs short‐term (5 days) treated: considerably lower
[3]; tumor‐bearing WT mice, 25 mg·kg^−1, 4 h after third daily administration
  plasma concentration relative to the previous pharmacokinetic experiment (single dose, tumor‐free): around one‐fourth
[4]
  brain–plasma ratio: around 0.02
[5]
  concentration in cerebrospinal fluid (CSF) as share of the plasma concentration: < 1%
[6]
  median overall survival: 4.3 months
